Results reported in article PMC11329753, “Human mitochondrial carriers of the SLC25 family function as monomers exchanging substrates with a ping-pong kinetic mechanism” (The EMBO Journal, 2024).

What was measured:
[1] = target: T1, human aspartate/glutamate carrier 2 (AGC2, SLC25A13) (Homo sapiens, UniProt Q9UJS0); assay: nanoDSF thermal shift; assay type: binding; details: 10 mM aspartate; 20 mM HEPES pH 7.0, 50 mM NaCl, cardiolipin/LMNG; apo Tm 55.4 °C
T1 construct: N-terminal His8 tag with TEV site, tag removed by TEV cleavage; codon-optimized, expressed in Saccharomyces cerevisiae W303.1B mitochondria; purified in LMNG/cardiolipin; 74 kDa protomer, homodimer via N-terminal domains
T1 sequence (Q9UJS0 2-675): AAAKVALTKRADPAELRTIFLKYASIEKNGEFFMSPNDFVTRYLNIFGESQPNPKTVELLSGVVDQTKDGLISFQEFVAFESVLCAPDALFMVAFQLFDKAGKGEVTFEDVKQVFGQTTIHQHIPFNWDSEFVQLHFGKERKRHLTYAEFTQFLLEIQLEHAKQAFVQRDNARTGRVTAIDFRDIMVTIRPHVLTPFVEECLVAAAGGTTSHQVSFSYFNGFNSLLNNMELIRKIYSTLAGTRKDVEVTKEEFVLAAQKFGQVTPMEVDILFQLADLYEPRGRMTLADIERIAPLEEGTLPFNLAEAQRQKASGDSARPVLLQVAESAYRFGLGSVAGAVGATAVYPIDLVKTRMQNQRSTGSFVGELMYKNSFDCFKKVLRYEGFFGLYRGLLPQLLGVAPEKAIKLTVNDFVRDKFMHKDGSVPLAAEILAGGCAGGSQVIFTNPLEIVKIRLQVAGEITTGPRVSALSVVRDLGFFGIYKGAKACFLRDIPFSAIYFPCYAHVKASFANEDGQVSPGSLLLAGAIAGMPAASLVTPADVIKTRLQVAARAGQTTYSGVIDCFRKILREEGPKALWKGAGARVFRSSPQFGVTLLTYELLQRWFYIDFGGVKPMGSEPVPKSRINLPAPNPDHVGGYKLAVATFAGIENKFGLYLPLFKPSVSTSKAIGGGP

[2] = target: T1, human aspartate/glutamate carrier 2 (AGC2, SLC25A13); assay: […]-aspartate uptake into proteoliposomes, homo-exchange, Michaelis-Menten fit; assay type: biochemical; details: labelled compound; internal aspartate 0.10-1.00 mM, external 1.5-25 μM; 20 mM HEPES pH 7.4, 50 mM NaCl, 1 mM CaCl2
[3] = target: T2, human oxoglutarate carrier (OGC, SLC25A11) (Homo sapiens, UniProt Q02978); assay: nanoDSF thermal shift; assay type: binding; details: 10 mM malate; 20 mM HEPES pH 7.0, 50 mM NaCl, cardiolipin/LMNG; apo Tm 51.0 °C
T2 construct: residues 2-13 deleted; N-terminal His8 tag with factor Xa site, tag removed by on-column Xa cleavage; codon-optimized, expressed in Saccharomyces cerevisiae W303.1B mitochondria; purified in LMNG/cardiolipin; 33,477 Da; monomer
T2 sequence (Q02978 14-314): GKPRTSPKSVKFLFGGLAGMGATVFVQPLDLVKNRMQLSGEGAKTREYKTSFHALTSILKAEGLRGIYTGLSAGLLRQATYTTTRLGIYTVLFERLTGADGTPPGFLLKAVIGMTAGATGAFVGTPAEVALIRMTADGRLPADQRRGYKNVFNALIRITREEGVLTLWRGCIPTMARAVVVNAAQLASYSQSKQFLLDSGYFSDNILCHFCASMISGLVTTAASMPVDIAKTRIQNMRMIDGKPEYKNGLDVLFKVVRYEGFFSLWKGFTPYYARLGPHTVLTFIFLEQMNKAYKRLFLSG

[4] = target: T2, human oxoglutarate carrier (OGC, SLC25A11); assay: […]-malate uptake into proteoliposomes, homo-exchange, Michaelis-Menten fit; assay type: biochemical; details: labelled compound; internal malate 0.10-1.00 mM, external 0.5-20 μM; 20 mM HEPES pH 7.0, 50 mM NaCl, 5 mM MgCl2
[5] = target: T3, human dicarboxylate carrier (DIC, SLC25A10) (Homo sapiens, UniProt Q9UBX3, INS1GKP); assay: nanoDSF thermal shift; assay type: binding; details: 10 mM malate; 20 mM HEPES pH 7.0, 50 mM NaCl, cardiolipin/LMNG; apo Tm 54.1 °C
T3 construct: GKP added at positions 2-4; N-terminal His8 tag with factor Xa site, tag removed by on-column Xa cleavage; codon-optimized, expressed in Saccharomyces cerevisiae BJ2168 mitochondria; purified in LMNG/cardiolipin; 31,923 Da; monomer
T3 sequence (Q9UBX3 with tags, fused parts or gaps INS1GKP): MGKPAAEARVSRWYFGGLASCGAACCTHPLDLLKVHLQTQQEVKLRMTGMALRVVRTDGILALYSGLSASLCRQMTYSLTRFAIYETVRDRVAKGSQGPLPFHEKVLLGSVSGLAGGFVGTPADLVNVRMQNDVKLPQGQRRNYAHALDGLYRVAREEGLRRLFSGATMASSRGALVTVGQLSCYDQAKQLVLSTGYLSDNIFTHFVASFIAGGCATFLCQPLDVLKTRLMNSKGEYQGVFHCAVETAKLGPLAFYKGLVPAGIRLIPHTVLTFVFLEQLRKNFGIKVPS

[6] = target: human citrate carrier (CIC, SLC25A1) (Homo sapiens, UniProt P53007); details: labelled compound; internal citrate 0.10-1.00 mM, external 1.0-25 μM; 20 mM HEPES pH 7.0, 50 mM NaCl, 5 mM MgCl2
[7] = target: the molecule itself; assay: SEC; 150 μL of purified carrier on Superdex 200 Increase 10/300 in buffer B (20 mM HEPES pH 7.0, 50 mM NaCl, 0.1 mg/mL tetraoleoyl cardiolipin/0.1% (w/v) lauryl maltose neopentyl glycol); sized against ferritin, aldolase, conalbumin and ovalbumin; total weight corrected for bound lipid/detergent (≈135 kDa)

Chain of human citrate carrier (CIC, SLC25A1) (P53007 13-311): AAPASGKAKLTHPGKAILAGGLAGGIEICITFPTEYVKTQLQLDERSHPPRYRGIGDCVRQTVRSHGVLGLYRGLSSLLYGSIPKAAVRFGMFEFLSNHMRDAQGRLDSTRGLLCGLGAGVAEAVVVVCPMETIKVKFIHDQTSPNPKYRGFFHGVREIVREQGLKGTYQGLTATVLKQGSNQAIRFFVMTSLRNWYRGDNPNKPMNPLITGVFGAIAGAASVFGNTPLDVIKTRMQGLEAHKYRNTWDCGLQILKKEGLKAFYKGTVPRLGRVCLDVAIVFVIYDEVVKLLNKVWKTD

For `N[C@@H](CC(=O)O)C(=O)O` [aspartate], the thermal shift [1] was 1.6 °C and the “apparent Km” value [2] was “chemical gradients for (C) OGC, (F) CIC, (I) DIC, and (L) AGC2”.

`O=C(O)C[C@H](O)C(=O)O` [malate] was tested, and the thermal shift [3] was 5.6 °C, the “apparent Km” value [4] was “Km plotted against Vmax for the various chemical gradients for (C) OGC” and the thermal shift [5] was 2.5 °C.

With `O=C(O)CC(O)(CC(=O)O)C(=O)O` [citrate] the “apparent Km” value [6] was “Km plotted against Vmax for the various chemical gradients for (C) OGC, (F) CIC”.

B1: human mitochondrial aspartate/glutamate carrier 2 (natural protein, UniProt Q9UJS0 1-675, looked up)
chain: MAAAKVALTKRADPAELRTIFLKYASIEKNGEFFMSPNDFVTRYLNIFGESQPNPKTVELLSGVVDQTKDGLISFQEFVAFESVLCAPDALFMVAFQLFDKAGKGEVTFEDVKQVFGQTTIHQHIPFNWDSEFVQLHFGKERKRHLTYAEFTQFLLEIQLEHAKQAFVQRDNARTGRVTAIDFRDIMVTIRPHVLTPFVEECLVAAAGGTTSHQVSFSYFNGFNSLLNNMELIRKIYSTLAGTRKDVEVTKEEFVLAAQKFGQVTPMEVDILFQLADLYEPRGRMTLADIERIAPLEEGTLPFNLAEAQRQKASGDSARPVLLQVAESAYRFGLGSVAGAVGATAVYPIDLVKTRMQNQRSTGSFVGELMYKNSFDCFKKVLRYEGFFGLYRGLLPQLLGVAPEKAIKLTVNDFVRDKFMHKDGSVPLAAEILAGGCAGGSQVIFTNPLEIVKIRLQVAGEITTGPRVSALSVVRDLGFFGIYKGAKACFLRDIPFSAIYFPCYAHVKASFANEDGQVSPGSLLLAGAIAGMPAASLVTPADVIKTRLQVAARAGQTTYSGVIDCFRKILREEGPKALWKGAGARVFRSSPQFGVTLLTYELLQRWFYIDFGGVKPMGSEPVPKSRINLPAPNPDHVGGYKLAVATFAGIENKFGLYLPLFKPSVSTSKAIGGGP
notes: human aspartate/glutamate carrier 2 (AGC2, SLC25A13), UniProt Q9UJS0; TEV site between the His8 tag and the protein; protomers printed as 74 kDa each; also called AGC2; SLC25A13; not shown: His8, N-terminal, cleaved
For B1, the “stoichiometry N” value [7] was 2.
